According to EP2998295A1, “Aryl substituted naphthyl sulfonamide derivatives as keap-1 modulators for the treatment of diabetes, obesity, dyslipidemia and related disorders” (SANOFI, priority 2014, dated 2016):

target: T1, human Keap1 kelch domain (amino acids Ala321 -Thr609) (Homo sapiens, UniProt Q14145); assay: Keap1-Nrf2 peptide binding assay (fluorescence polarisation); details: Keap1 kelch domain 20 nM, fluorescently labeled Nrf2 peptide 50 nM
T1 construct: human Keap1 kelch domain (amino acids Ala321 -Thr609)
Protocol: A fluorescence polarisation assay was used to measure binding of the human Keap1 kelch domain (amino acids Ala321 -Thr609) to a fluorescently labeled peptide containing a Keap1 binding site of human Nrf2 (Alexa633-AFFAQLQLDEETGEFL; JPT Technologies, Berlin, Germany). Two microliters of test compound in reaction buffer (phosphate-buffered saline, 2 mM DL-dithiothreitol, 0.015 % (v/v) Brij-35) containing 6 % (v/v) DMSO were mixed with two microliters of the Keap1 kelch domain in reaction buffer in a black 384-well small volume microtiter plate and incubated at ambient temperature for 15 minutes. Thereafter, two microliters were added of the fluorescently labeled Nrf2 peptide in reaction buffer, and the mixture was incubated for a further 30 minutes at ambient temperature. Final concentrations of the Keap1 kelch domain and the fluorescently labeled Nrf2 peptide were 20 nM and 50 nM, respectively.
Fluorescence polarization (FP) was measured at excitation and emission wavelengths of 635 nm and 660 nm, respectively. Positive controls for binding (two microliters of reaction buffer containing 6 % (v/v) DMSO instead of test compound in the same buffer) and negative controls (as positive controls, but without Keap1 kelch domain) were included on each microtiter plate. Data were expressed as percent-inhibition values: percent inhibition = 100⋅(1(|FPcompound-FPnegative control|)/(|FPpositive control-FPnegative control|)) [formula]
IC50 values were determined by testing different compound concentrations and fitting the resulting percent-inhibition values to the following equation using XLFit4: percent inhibition = A + (B-A)/(1 + (((IC50)/([Compound])))^D) [formula]
Parameter A was set to zero, pre-fit values for parameters B and D were set to 100 and 1, respectively.

T1 sequence (Q14145 321-609): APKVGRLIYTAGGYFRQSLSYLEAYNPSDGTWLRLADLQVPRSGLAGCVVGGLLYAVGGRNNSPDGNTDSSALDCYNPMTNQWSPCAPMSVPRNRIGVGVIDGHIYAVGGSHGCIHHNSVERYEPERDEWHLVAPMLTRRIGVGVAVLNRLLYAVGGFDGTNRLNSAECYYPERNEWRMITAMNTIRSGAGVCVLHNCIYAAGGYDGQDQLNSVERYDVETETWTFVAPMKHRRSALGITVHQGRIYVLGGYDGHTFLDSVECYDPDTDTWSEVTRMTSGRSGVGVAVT

Question: For `Cc1cc(C)c(C)c(S(=O)(=O)Nc2cc(-c3cccc(C(=O)O)c3)cc3ccccc23)c1C` [Example 4, 3-[4-[(2,3,5,6-tetramethylphenyl)sulfonylamino]-2-naphthyl]benzoic acid], which IC50 is on record?
Answer: 1500 nM

Question: Which IC50 does the source give for `CC(=O)Nc1cc(C(=O)O)cc(-c2cc(NS(=O)(=O)c3c(C)c(C)cc(C)c3C)c3ccccc3c2)c1` [Example 9, 3-acetamido-5-[4-[(2,3,5,6-tetramethylphenyl)sulfonylamino]-2-naphthyl]benzoic acid] here?
Answer: 400 nM

Question: With `Cc1cc(C)c(C)c(S(=O)(=O)Nc2cc(-c3ccc(C(=O)O)cc3)cc3ccccc23)c1C` [Example 1, 4-[4-[(2,3,5,6-tetramethylphenyl)sulfonylamino]-2-naphthyl]benzoic acid] as the molecule, how does the IC50 read?
Answer: 2500 nM

same assay, conditions: Keap1 kelch domain 20 nM, fluorescently labeled Nrf2 peptide 50 nM, read-out: IC50

Question: How did the IC50 turn out when `Cc1cc(C)c(C)c(S(=O)(=O)Nc2cc(-c3cc(Cl)cc(C(=O)O)c3)cc3ccccc23)c1C` [Example 7, 3-chloro-5-[4-[(2,3,5,6-tetramethylphenyl)sulfonylamino]-2-naphthyl]benzoic acid] was run?
Answer: 3300 nM

Question: For `Cc1cc(C)c(C)c(S(=O)(=O)Nc2cc(-c3cncc(C(=O)O)c3)cc3ccccc23)c1C` [Example 3, 5-[4-[(2,3,5,6-tetramethylphenyl)sulfonylamino]-2-naphthyl]pyridine-3-carboxylic acid], which IC50 is on record?
Answer: 1900 nM

Question: Which IC50 does the source give for `Cc1cc(C)c(C)c(S(=O)(=O)Nc2cc(-c3ccc(O)c(C(=O)O)c3)cc3ccccc23)c1C` [Example 2, 2-hydroxy-5-[4-[(2,3,5,6-tetramethylphenyl)sulfonylamino]-2-naphthyl]benzoic acid] here?
Answer: 4100 nM

Question: Which IC50 does the source give for `Cc1cc(C)c(C)c(S(=O)(=O)Nc2cc(-c3cc(F)cc(C(=O)O)c3)cc3ccccc23)c1C` [Example 5, 3-fluoro-5-[4-[(2,3,5,6-tetramethylphenyl)sulfonylamino]-2-naphthyl]benzoic acid] here?
Answer: 2100 nM

Question: Which IC50 does the source give for `Cc1cc(C)c(C)c(S(=O)(=O)Nc2cc(-c3cc(C(=O)O)n(C)n3)cc3ccccc23)c1C` [Example 11, 2-methyl-5-[4-[(2,3,5,6-tetramethylphenyl)sulfonylamino]-2-naphthyl]pyrazole-3-carboxylic acid] here?
Answer: 5700 nM

Question: For `Cc1cc(C)c(C)c(S(=O)(=O)Nc2cc(-c3ccc(C(=O)O)s3)cc3ccccc23)c1C` [Example 12, 5-[4-[(2,3,5,6-tetramethylphenyl)sulfonylamino]-2-naphthyl]thiophene-2-carboxylic acid], which IC50 is on record?
Answer: 12000 nM

Question: Which IC50 does the source give for `Cc1cc(C)c(C)c(S(=O)(=O)Nc2cc(-c3ccc(F)c(C(=O)O)c3)cc3ccccc23)c1C` [Example 10, 2-fluoro-5-[4-[(2,3,5,6-tetramethylphenyl)sulfonylamino]-2-naphthyl]benzoic acid] here?
Answer: 1800 nM

Question: Which IC50 does the source give for `Cc1cc(C)c(C)c(S(=O)(=O)Nc2cc(-c3ccc(Cl)c(C(=O)O)c3)cc3ccccc23)c1C` [Example 8, 2-chloro-5-[4-[(2,3,5,6-tetramethylphenyl)sulfonylamino]-2-naphthyl]benzoic acid] here?
Answer: 1600 nM

Question: With `Cc1cc(C)c(C)c(S(=O)(=O)Nc2cc(-c3cccc(C(=O)O)c3F)cc3ccccc23)c1C` [Example 6, 2-fluoro-3-[4-[(2,3,5,6-tetramethylphenyl)sulfonylamino]-2-naphthyl]benzoic acid] as the molecule, how does the IC50 read?
Answer: 5600 nM
